The values that follow come from patent publication US20120283235A1, “Dermatologic and Cosmetic Compositions” (DISCOVERY PARTNERS LLC, priority 2009, published 2012).

The test system of the test is Adult human dermal fibroblasts. In words: Collagen type I in human dermal fibroblast conditioned media. In kind it is cell-based. To be noted: MAP 100 ug/ml; Vit. C 10 ug/ml; FIG. 1. Here is the method: Adult human dermal fibroblasts (facial cells, from Cell Applications, Inc. San Diego, Calif., Catalog #106-05A, Lot 1339) were incubated for seventy-two hours in Fibroblast Growth Serum (Cell Applications, cat. #116-500). Four test formulations, each formulation used at three final test sample dilutions of 2.5%, 0.5% and 0.05%, were added to the incubated cells. All concentrations expressed in weight/weight unless otherwise noted: • (i) Test Formulation #1, CHL-01-057 (labeled “1”) served as a control and contained 90% purified water and 10% butylene glycol; • (ii) Test Formulation #2, CHL-01-053 (labeled “2”) containing 0.2% of 1-Disodium Copper Chlorin E4 in 10% butylene glycol and 89.8% purified water; • (iii) Test Formulation #3, (labeled #3) CHL-01-0 51 containing 0.2% Sodium Copper Chlorophyllin complex, USP in 10% butylene glycol and 89.8% purified water; • (iv) Test Formulation #4, CHL-01-055 (labeled “4”) containing 0.2% Sodium Zinc Chlorophyllin in 10% butylene glycol and 89.8% purified water. Based on the final dilutions, the amount of chlorin, chlorophyllin, or control compound added to the cell culture was 50 ppm, 10 ppm, and 1 ppm (ppm=parts per million by weight). Each of the above formulations was prepared by adding butylene glycol to water and mixing on a heating plate with a magnetic stirrer until the glycol fully dissolved. […]

Each structure is given as a SMILES string.

Consider `O=C1O[C@H]([C@@H](O)CO)C(O)=C1O` [vitamin C, ascorbic acid], for which the “stimulatory activity on type 1 collagen production (positive controls)” value is “strong stimulatory activity”.
Turning to `O=C1O[C@H]([C@@H](O)CO)C([O-])=C1OP(=O)([O-])[O-].O=C1O[C@H]([C@@H](O)CO)C([O-])=C1OP(=O)([O-])[O-].[Mg+2].[Mg+2].[Mg+2]` [Magnesium Ascorbyl Phosphate, magnesium ascorbyl phosphate], the “stimulatory activity on type 1 collagen production (positive controls)” value is “strong stimulatory activity”.
